Source: patent publication US6057153A, “Stabilized external guide sequences” (Yale University, priority 1997, dated 2000)
Entries after “also recorded” stand apart in the source; their conditions may differ.

Assays:
Substrate RNA (SUB-156) = experiment: RNase P-mediated cleavage assay, single turnover conditions; type: biochemical, hepatitis B virus (HBV); details: 200 nM EGS, 20 nM substrate, saturating RNase P, 60 min
Method: RNase P-mediated cleavage assay--Human RNase P was purified from HeLa cells according to the published procedures (14). Substrate RNA (SUB-156, FIG. 24) was 5'-end labeled using T4 polynucleotide kinase and [γ-^32P]ATP. The labeling mixture was then heated to 85° C. for 1 min, diluted with RNase-free water, and purified by a MICROSPIN™ G-25 column (Pharmacia) according to the manufacturer's instructions. Cleavage reactions were conducted in a reaction buffer containing 50 mM Tris-HCl (pH 7.4), 25 mM KCl, 10 mM MgCl2 and 0.1 mM EDTA. EGS oligomers and ^32 p-5'-end-labeled RNA substrate were heated in the reaction buffer without MgCl2 to 85° C. for 1 min and then slowly cooled to room temperature. The cleavage reaction was initiated by adding 2 μl of 100 mM MgCl2 and 3 μl of RNase P (enzyme activity for this preparation: cleavage of 0.035 pmol of tRNA^Tyr precursor min^-1 μl^-1). The final reaction volume was 20 μl and the reaction was incubated at 37° C. for 60 min. […] For each sample, cleavage reactions were performed in duplicates and the average values were used. To ensure reproducibility, cleavage assays for each EGS were also repeated in two separate experiments. The all-RNA EGS-159 was used as the reference sample and its cleavage values were counted as 100%. Cleavage percentages of all other EGSs were normalized against EGS-159 (Rel. Cleavage %) except in FIG. 30 and FIG. 31 where absolute cleavage percentages (Abs. Cleavage %) were plotted.
For EGS-single turnover conditions, the final concentrations were 200 nM for EGS and 20(nM for the RNA substrate. For EGS-multiple turnover conditions, the final concentrations were 200 nM for the RNA substrate and 40 nM for EGS. When determination of the time-course was required, the reaction volume was increased to 40 μl. Aliquots of 5-8 μl were removed from the reaction mixture at different time points (e.g. 1, 5, 15, 30 and 60 min), quenched in formamide loading buffer, and loaded onto 15% polyacrylamide/8 M urea gels. Quantitation of the cleavage product and the remaining RNA substrate was achieved using a Molecular Dynamics PHOSPHORIMAGER™.
General considerations--To select lead nuclease-resistant oligonucleotide prototypes as external guide sequences among many possible modifications, a reliable yet rapid in vitro cleavage assay for routine screening was used. Human RNase P, a ribonucleoprotein, is composed of a 340-nt H1 RNA component and one or more proteins (for recent review, see Ref. 16). A 3-step screening strategy was devised: 1) All analogues once synthesized were tested by a fast qualitative cleavage assay under single turnover conditions with 10-fold excess of EGS over target RNA substrate for 60 min. […] This was the best cleavage condition used in this study. Any analogue with a reasonable activity (e.g. more than 5% cleavage) would not be missed, under these circumstances, due to the high detection sensitivity provided by PHOSPHORIMAGER™. 2) Promising analogues were then assayed for stability in 50% human serum.

[1] = Nuclease resistance studies in 50% human serum; type: in vitro ADME; details: 37° C.
Method: Nuclease resistance studies--100 μl of EGS oligonucleotides (5 μM), containing a trace of 5'-end-labeled oligomers, were incubated at 37° C. for different time periods (0-24 h) with 50% human serum (Sigma, S-7023). 20 μl aliquots were diluted to 100 μl with RNase-free water, phenol/chlorform extracted, and ethanol precipitated. The residue was resuspended in 10 μl of TE and 10 μl of 2× gel loading buffer containing 98% formamide, 10 mM1 EDTA and 0.1% bromophenol blue. The mixture was heated to 85° C. for 1 min, quickly cooled on ice and frozen at -20° C. prior to electrophoresis on 15% polyacrylamide/8 M urea gels. Gels were subsequently scanned on a Molecular Dynamics PHOSPHORIMAGER™, and the stability profile for each, oligomer was estimated from the ratio of the remaining intact materials versus all radio-labeled materials (intact oligomers plus degradation products). Stability studies of non radio-labeled EGS oligomers using capillary gel electrophoresis were also carried out according to the method of Leeds et al. (15).

2.1 kb HBV RNA = experiment: RNAse P cleavage of large target RNA; type: biochemical; details: 250 nM EGS, 30 minutes at 37° C.
Method: To test cleavage with a longer target RNA molecules, different reaction conditions were used. Reactions in a total volume of 10 μl contained 40 mM Tris-HCl (pH 7.4), 10 mM MgCl2, 1 mM spermidine 10 mM dithiothreitol, 0.05 μg/μl nuclease-free bovine serum albumin, 0.01% (v/v) Triton-X100™, 0.8 Units/μl RNASIN, 0.2 mM ATP, 0.2 mM GTP, 0.2 mM UTP, 0.2 mM CTP, 0.1 μCi/μl [a^32 P] CTP, 2 mM m^7 G(5')pppG, 0.06 μg/μl yeast RNA, 25 mM KCl, 3 Units T7 RNA polymerase, 250 nM EGS, 1 μl of human RNAse P and 3 ng/μl linearized plasmid. Reactions were initiated by the addition of linearized plasmid and incubated for 30 minutes at 37° C. Reactions were terminated by the addition of 10 μl of 80% formaemide, 10 mM EDTA, 0.1% bromphenol blue. After heating for 2 minutes at 90° C., samples were electrophoresed for 2 hours at 48 watts on a 5% denaturing polyacrylamide gel. After vacuum drying for 1 hour at 60° C., the gel was analyzed by phosphoimaging.
Cleavage of Large Target RNA: Plasmid pAYW2.1, containing the sequence that encodes the 2.1 kb RNA of the AYW strain of HBV, was linearized by digestion with Not I, and then transcribed by T7 RNA polymerase in the presence of [α^32 P]CTP. Labeled transcripts were incubated for 30 minutes at 37° C. with RNase P in the presence of various EGS molecules. Reaction products were subjected to denaturing polyacrylamide gel electrophoresis, and analyzed by phosphoimaging. EGS-mediated cleavage at the targeted site of the 2.1 kb transcript produces cleavage products that are approximately 1.7 and 0.4 kb in length.

[2] = system: short substrate (SEQ ID NO. 1) derived from the full-length pre-genomic HBV RNA; experiment: RNAse P cleavage assay, short substrate; type: biochemical; details: short substrate, EGS 200 nM, 37° C., 1 hour
Method: RNAse P Cleavage Assays: Cleavage reactions were carried out generally according to the procedure described by Yuan et al., Proc. Natl. Acad. Sci., USA, 89:8006-8010, (1992), which is hereby incorporated by reference. Briefly, short substrate reactions were made up to a total volume of 31μ in 50 mM Tris-HCl pH 7.4, 10 mM MgCl2, 25 mM KCl, 0.1 mM EDTA, […] at 37° C. for 1 hour. After incubation, the reaction solution was mixed with loading buffer (98% formamide, 10 mM EDTA, 0.025% bromophenol blue). The cleaved substrate was separated from the uncleaved by electrophoresis on a 15% acrylamide gel containing 7 M urea. The bands were quantified on a Molecular Dynamics PHOSPHORIMAGER™.
The bands corresponding to the precursor RNA substrate and the resulting two cleavage products were counted from the dried gel using a BETASCOPE™ gel analyzer (Betagen).
RNAse P was purified by DEAE SEPHAROSE™ chromatography and glycerol density gradient centrifugation essentially as described by Bartkiewicz et al., Genes Dev. 3:488-499 (1989), which is hereby incorporated by reference.
The percentage of precursor RNA substrate remaining in either assay was plotted as function of the EGS concentration and the catalytic efficiency expressed as kcat /Km (where kcat is the rate constant of cleavage and Km is the Michaelis constant), the second order rate constant for the reaction of free EGS and substrate. Following the methods of Heidenreich and Eckstein (J. Biol. Chem., 267:1904-1909 (1992), the efficiency of the cleavage reaction, kcat /Km), was determined using the formula
The EGS constructs described in Example 2 were assayed using the RNAse P cleavage assays described in Example 1 to determine the efficiency of the cleavage reaction. FIG. 1 depicts the model system using a short substrate which was used to evaluate the ability of modified EGS molecules in inducing RNase P-mediated target cleavage. The sequence of the short substrate (SEQ ID NO. 1) was derived from the full-length pre-genomic HBV RNA.

Substance | RNase P-mediated cleavage activity compared to the all-RNA control (Substrate RNA (SUB-156)) | other results
EGS-381: C56 in the T-loop substituted with rG, SEQ ID NO. 41 (guide AGAUGAUAGAAGGUUGGAAUCCUUCACGCCGC; Riboguanosine at tRNA position 56 of T-loop, rest of chemistry not given here) | effectively substituted | 
EGS-400: no RNA residues, remaining riboadenosines replaced by deoxynucleotides, SEQ ID NO. 47 (AGAUGAUAGAAGGUUAGAAUCCUUCACGCCGC; guide RNA; No RNA residues, remaining riboadenosines replaced by deoxynucleotides, other modifications not given here) | Significant reduction in activity | 
EGS-399: U54 replaced with riboadenosine, SEQ ID NO. 45 (AGAUGAUAGAAGGAUAGAAUCCUUCACGCCGC; guide RNA; Riboadenosine at tRNA position 54, rest of chemistry not given here) | promising | fraction degraded in 50% human serum ([1]; 24 h): 16%
EGS-404: no RNA residues, remaining riboadenosines replaced by deoxynucleotides, SEQ ID NO. 48 (AGAUGAUAGAAGGAUAGAAUCCUUCACGCCGC; guide RNA; No RNA residues, remaining riboadenosines replaced by deoxynucleotides, other modifications not given here) | Significant reduction in activity | 
INNO-149: SEQ ID NO. 3, 2'-O-methyl arms and T stem, phosphorothioate T loop, 3'-amino group (CGAUGAAGGUUCGAAUCCUUCCCAGGAC; 2'-O-methyl, phosphorothioate T loop, 3'-amino, chemistry not fully specified) |  | RNase P-mediated cleavage of 2.1 kb HBV RNA (2.1 kb HBV RNA): capable of inducing RNase P-mediated cleavage; also recorded: mostly cleaved; RNase P-mediated cleavage of 2.1 kb HBV RNA (2.1 kb HBV RNA; listed as analogue 149): more effective than analogue 155
INNO-124: SEQ ID NO. 2, 2'-O-methyl arms, variable loop, T stem and first 5'-U of T loop (CGAUACGGAAGGUUCGAAUCCUUCCCAGGAC; 2'-O-methyl modifications, chemistry not fully specified) |  | efficiency of RNase P-mediated target cleavage relative to the wild-type EGS [2]: most pronounced decrease in cleavage efficiency
EGS-406: no RNA residues, remaining riboadenosines replaced by deoxynucleotides, SEQ ID NO. 50 (AGAUGAUAGAAGGUUAGAAUCCUUCACGCCGC; guide RNA; No RNA residues, remaining riboadenosines replaced by deoxynucleotides, other modifications not given here) | Significant reduction in activity | 
EGS-364: EGS-356 with disrupted T-stem, SEQ ID NO. 34 (guide AGAUGAUACACUGUUCGAAUGGUACACGCCGCN; chemistry not given here) |  | stability in 50% human serum ([1]; experiment of 2 h): did not change the results
INNO-126: SEQ ID NO. 2, 2'-O-methyl arms, variable loop, T stem and third 5'-C of T loop (CGAUACGGAAGGUUCGAAUCCUUCCCAGGAC; 2'-O-methyl modifications, chemistry not fully specified) |  | efficiency of RNase P-mediated target cleavage relative to the wild-type EGS [2]: most pronounced decrease in cleavage efficiency
EGS-380: C56 in the T-loop substituted with rA, SEQ ID NO. 40 (guide AGAUGAUAGAAGGUUAGAAUCCUUCACGCCGC; Riboadenosine at tRNA position 56 of T-loop, rest of chemistry not given here) | effectively substituted | 
EGS-405: no RNA residues, remaining riboadenosines replaced by deoxynucleotides, SEQ ID NO. 49 (AGAUGAUAGAAGGTUAGAAUCCUUCACGCCGC; guide RNA; No RNA residues, remaining riboadenosines replaced by deoxynucleotides, other modifications not given here) | Significant reduction in activity | 
EGS H62: all-RNA EGS, SEQ ID NO. 3, prepared by T7 RNA polymerase transcription (guide CGAUGAAGGUUCGAAUCCUUCCCAGGAC; unmodified RNA) |  | RNase P-mediated cleavage of 2.1 kb HBV RNA (2.1 kb HBV RNA): Complete cleavage
